# Where two headings read alike, the source gives them in different places.
# Experiments:
# [1] = target: T1, indoleamine 2,3-dioxygenase (IDO1) (Homo sapiens, UniProt P14902); assay: PBMC IDOi assay (kynurenine by mass spectrometry); assay type: cell-based; conditions: IFN-γ and LPS stimulated human PBMC, 2 days, kynurenine detected by mass spectrometry; read-out: PBMC pIC50 (converted)
# Method: Brief descriptions of the cellular assays are provided following the table.
# Compounds of the present invention were tested via high-throughput cellular assays utilizing detection of kynurenine via mass spectrometry and cytotoxicity as end-points. For the mass spectrometry and cytotoxicity assays, human peripheral blood mononuclear cells (PBMC) (PB003F; AllCells®, Alameda, Calif.) were stimulated with human interferon-γ (IFN-γ) (Sigma-Aldrich Corporation, St. Louis, Mo.) and lipopolysaccharide from Salmonella minnesota (LPS) (Invivogen, San Diego, Calif.) to induce the expression of indoleamine 2,3-dioxygenase (IDO1). Compounds with IDO1 inhibitory properties decreased the amount of kynurenine produced by the cells via the tryptophan catabolic pathway. Cellular toxicity due to the effect of compound treatment was measured using CellTiter-Glo® reagent (CTG) (Promega Corporation, Madison, Wis.), which is based on luminescent detection of ATP, an indicator of metabolically active cells.
# In preparation for the assays, test compounds were serially diluted 3-fold in DMSO from a typical top concentration of 5 mM and plated at 0.5 μL in 384-well, polystyrene, clear bottom, tissue culture treated plates with lids (Greiner Bio-One, Kremsmünster, Austria) to generate 11-point dose response curves. Low control wells (0% kynurenine or 100% cytotoxicity) contained either 0.5 μL of DMSO in the presence of unstimulated (−IFN-γ/−LPS) PBMCs for the mass spectrometry assay or 0.5 μL of DMSO in the absence of cells for the cytotoxicity assay, and high control wells (100% kynurenine or 0% cytotoxicity) contained 0.5 μL of DMSO in the presence of stimulated (+IFN-γ/+LPS) PBMCs for both the mass spectrometry and cytotoxicity assays.
# Frozen stocks of PBMCs were washed and recovered in RPMI 1640 medium (Thermo Fisher Scientific, Inc., Waltham, Mass.) supplemented with 10% v/v heat-inactivated fetal bovine serum (FBS) (Thermo Fisher Scientific, Inc., Waltham, Mass.), and 1× penicillin-streptomycin antibiotic solution (Thermo Fisher Scientific, Inc., Waltham, Mass.). The cells were diluted to 1,000,000 cells/mL in the supplemented RPMI 1640 medium. 50 μL of either the cell suspension, for the mass spectrometry assay, or medium alone, for the cytotoxicity assay, were added to the low control wells, on the previously prepared 384-well compound plates, resulting in 50,000 cells/well or 0 cells/well respectively. IFN-γ and LPS were added to the remaining cell suspension at final concentrations of 100 ng/ml and 50 ng/ml respectively, and 50 μL of the stimulated cells were added to all remaining wells on the 384-well compound plates. The plates, with lids, were then placed in a 37° C., 5% CO2 humidified incubator for 2 days.
# Following incubation, the 384-well plates were removed from the incubator and allowed to equilibrate to room temperature for 30 minutes. For the cytotoxicity assay, CellTiter-Glo® was prepared according to the manufacturer's instructions, and 40 μL were added to each plate well. After a twenty minute incubation at room temperature, luminescence was read on an EnVision® Multilabel Reader (PerkinElmer Inc., Waltham, Mass.). For the mass spectrometry assay, 10 μL of supernatant from each well of the compound-treated plates were added to 40 μL of acetonitrile, containing 10 μM of an internal standard for normalization, in 384-well, polypropylene, V-bottom plates (Greiner Bio-One, Kremsmünster, Austria) to extract the organic analytes. Following centrifugation at 2000 rpm for 10 minutes, 10 μL from each well of the acetonitrile extraction plates were added to 90 μL of sterile, distilled H2O in 384-well, polypropylene, V-bottom plates for analysis of kynurenine and the internal standard on the RapidFire 300 (Agilent Technologies, Santa Clara, Calif.) and 4000 QTRAP MS (SCIEX, Framingham, Mass.). […]
# [2] = target: T1, indoleamine 2,3-dioxygenase (IDO1); assay: HeLa IDOi assay (kynurenine by mass spectrometry); assay type: cell-based; parameters: human epithelial HeLa cells (CCL-2; host or cells: HeLa cells stimulated with human IFN-γ; conditions: IFN-γ stimulated HeLa cells, 2 days, kynurenine detected by mass spectrometry; read-out: HeLa pIC50 (converted)
# Method in brief: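 HeLa cells (5,000/well) stimulated with 10 nM IFN-γ and exposed to 11-point 3-fold compound dilutions (DMSO stock top typically 5 mM) for 2 days at 37 °C. Supernatant kynurenine quantified by RapidFire MS as ratio to internal standard; cytotoxicity by CellTiter-Glo ATP luminescence. Normalized to unstimulated/stimulated controls; XC50 from four-parameter fit.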
# [3] = test system: conversion of T cells into CD4+FoxP3+ Tregs; conditions: co-culture of DCs and naïve CD4+CD25− T cells; cited from earlier work
# PAN02 pancreatic cells = conditions: orally dosed, cited from earlier work
# T1 sequence (P14902 whole entry): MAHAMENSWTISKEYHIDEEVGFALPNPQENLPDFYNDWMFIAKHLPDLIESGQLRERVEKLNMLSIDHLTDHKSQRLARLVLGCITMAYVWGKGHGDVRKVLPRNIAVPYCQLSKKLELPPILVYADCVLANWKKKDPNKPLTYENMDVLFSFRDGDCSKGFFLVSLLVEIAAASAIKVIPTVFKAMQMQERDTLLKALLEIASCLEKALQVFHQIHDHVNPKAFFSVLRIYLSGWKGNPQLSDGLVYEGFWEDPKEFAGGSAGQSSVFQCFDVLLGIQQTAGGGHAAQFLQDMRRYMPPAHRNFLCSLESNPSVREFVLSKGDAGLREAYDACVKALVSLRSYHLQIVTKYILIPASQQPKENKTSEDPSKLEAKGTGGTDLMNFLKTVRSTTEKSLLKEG
Structure (SMILES),IC50 [1],IC50 [2],conversion of T cells into CD4+FoxP3+ Tregs [3],"inhibition of tumor growth (PAN02 pancreatic cells; PAN02 syngeneic model, immunocompetent mice)",inhibition of tumor growth (PAN02 pancreatic cells; same tumor implanted in immune-deficient mice)
"CC(C)(C)Sc1ncc(-c2ccccc2-c2nnn[nH]2)cc1NC(=O)Cc1ccccc1C(F)(F)F [Example 67, N-(5-(2-(1H-tetrazol-5-yl)phenyl)-2-(tert-butylthio)pyridin-3-yl)-2-(2-(trifluoromethyl)phenyl)acetamide]",12.6 nM,100 nM,–,–,–
NS(=O)(=O)NCCNc1nonc1C(=NO)Nc1ccc(F)c(Br)c1 [INCB204360],–,–,blocked the conversion,significant dose-dependent inhibition of tumor growth,without effect
